Tested on: SARS-CoV-2 clinical isolates D614G
Assay type: cell-based

Compound `CN1CCCC(n2nc(Cc3ccc(Cl)cc3)c3ccccc3c2=O)CC1` (centres unmarked) [Azelastine] has an IC50 of 5.75 µM.

In the case of `CC(CN1c2ccccc2Sc2ccccc21)N(C)C` (centres unmarked) [Promethazine], the IC50 is reported as 9.22 µM.

— patent US20230181556A1, “USE OF PSYCHOTROPIC DRUGS FOR THE TREATMENT OF CORONAVIRUS INFECTIONS” (priority 2020, published 2023)
